From patent publication US7326707B2, “Bicyclic melanocortin-specific compounds” (Palatin Technologies Incorporated, priority 2001, dated 2008) come the findings set out here.

In experiment [1] the target is T1, hMC3-R (Homo sapiens, UniProt P41968).
T1 construct: expressed in transfected cells
The experiment in a line: Competitive inhibition binding assay, 125I-NDP-α-MSH, MC3-R. Particulars: for Inhibition at 1 μM MC3-R: 1 μM compound, inhibition of 125I-NDP-α-MSH binding, mean of triplicates, results less than 0% reported as 0%. As to the method: (§1) Incubation was for 90 minutes at room temperature, after which the assay mixture was filtered and the membranes washed three times with ice cold buffer. The filter was dried and counted in a gamma counter for remaining radioactivity bound to the membranes. […] Each assay was conducted in triplicate and the actual mean values are described.

The target of experiment [2] is T2, hMC4-R (Homo sapiens, UniProt P32245).
T2 construct: expressed in transfected cells
T2 sequence (P32245 whole entry): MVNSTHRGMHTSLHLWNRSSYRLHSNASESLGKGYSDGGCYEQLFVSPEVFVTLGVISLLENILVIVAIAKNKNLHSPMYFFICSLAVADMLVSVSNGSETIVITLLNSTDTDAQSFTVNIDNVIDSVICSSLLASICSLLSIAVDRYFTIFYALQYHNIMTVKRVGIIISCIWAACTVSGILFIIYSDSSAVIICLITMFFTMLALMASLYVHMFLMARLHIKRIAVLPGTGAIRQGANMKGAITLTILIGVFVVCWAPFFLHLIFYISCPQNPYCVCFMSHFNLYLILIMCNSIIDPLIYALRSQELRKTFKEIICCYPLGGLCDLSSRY
The experiment in a line: Competitive inhibition binding assay, 125I-NDP-α-MSH, MC4-R. Conditions: for Inhibition at 1 μM MC4-R: 1 μM compound, inhibition of 125I-NDP-α-MSH binding, mean of triplicates, results less than 0% reported as 0%. As to the method:
as §1

For experiment [3], the target named is T3, B-16 mouse melanoma cells (containing MC1-R) (Mus musculus, UniProt Q01727).
T3 construct: B-16 mouse melanoma cells (containing MC1-R); endogenous in cells; host or cells: B-16 mouse melanoma cells
T3 sequence (Q01727 whole entry): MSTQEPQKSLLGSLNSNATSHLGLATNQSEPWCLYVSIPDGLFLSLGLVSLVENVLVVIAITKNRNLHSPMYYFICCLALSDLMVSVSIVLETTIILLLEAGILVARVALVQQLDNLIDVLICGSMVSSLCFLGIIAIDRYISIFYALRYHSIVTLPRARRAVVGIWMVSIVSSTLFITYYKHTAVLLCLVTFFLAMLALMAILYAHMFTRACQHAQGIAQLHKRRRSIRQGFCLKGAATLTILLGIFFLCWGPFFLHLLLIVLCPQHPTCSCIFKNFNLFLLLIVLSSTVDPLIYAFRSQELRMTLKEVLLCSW
The experiment in a line: Competitive inhibition binding assay, 125I-NDP-α-MSH, MC1-R. Particulars: for Inhibition at 1 μM MC1-R: 1 μM compound, inhibition of 125I-NDP-α-MSH binding, mean of triplicates, results less than 0% reported as 0%. The protocol: as §1

Experiment [4] has as its target T4, hMC5-R (Homo sapiens, UniProt P33032).
T4 construct: expressed in transfected cells
Put plainly: Competitive inhibition binding assay, 125I-NDP-α-MSH, MC5-R. Conditions: for Inhibition at 1 μM MC5-R: 1 μM compound, inhibition of 125I-NDP-α-MSH binding, mean of triplicates, results less than 0% reported as 0%. The protocol: as §1

Experiment [5] concerns Male Sprague-Dawley rats. The experiment in a line: ICV food intake and body weight change. It is filed as in vivo, rat. Particulars: 1 nmol dose. The protocol:
Change in food intake and body weight was evaluated for selected compounds. Male Sprague-Dawley rats weighing ˜300 g at the beginning of the experiment were kept on a 12 hour on/off light cycle. Lights out was adjusted to 12:00 p.m. to allow for dosing just prior to the start of their dark period. Rats (8-12/group) were fed powdered chow and water ad libitum. For 1 week before treatment, 24-hour food intake and body weight change was recorded to assess a baseline for the group during vehicle treatment. The rats were dosed ICV with vehicle or selected compounds (1-3 nmol). The changes in body weight and food intake for the 24 hour period after dosing were determined. The changes in body weight and food intake for the 48 hour period, and in same cases for 72 hours as well, after dosing were also measured to determined reversal of changes in body weight and food intake effect back to baseline.

For experiment [6], the target named is T5, MC3-R (HEK-293 cells expressing MC3-R) (Homo sapiens, UniProt P41968).
T5 construct: expressed in transfected cells; host or cells: HEK-293
T5 sequence (P41968 whole entry): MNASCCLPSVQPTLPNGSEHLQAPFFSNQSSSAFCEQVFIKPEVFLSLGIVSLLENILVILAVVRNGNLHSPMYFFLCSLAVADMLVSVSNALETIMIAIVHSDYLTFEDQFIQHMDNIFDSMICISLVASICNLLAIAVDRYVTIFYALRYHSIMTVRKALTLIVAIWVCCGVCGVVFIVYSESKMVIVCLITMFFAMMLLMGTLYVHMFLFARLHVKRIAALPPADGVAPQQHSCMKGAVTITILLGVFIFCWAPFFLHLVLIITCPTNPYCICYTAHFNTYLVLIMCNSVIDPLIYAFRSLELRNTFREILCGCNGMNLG
The experiment in a line: Ki determination by the method of Example 4, MC3-R. The class given is cell-based.

In experiment [7] the target is T6, MC1-R (B-16 mouse melanoma cells) (Mus musculus, UniProt Q01727).
T6 construct: B-16 mouse melanoma cells (containing MC1-R); endogenous in cells; host or cells: B-16 mouse melanoma cells
T6 sequence (Q01727 whole entry): as the sequence (Q01727 whole entry) above
The experiment in a line: Ki determination by the method of Example 4, MC1-R. It is filed as cell-based.

The target in experiment [8] is T7, MC4-R (HEK-293 cells expressing MC4-R) (Homo sapiens, UniProt P32245).
T7 construct: expressed in transfected cells; host or cells: HEK-293
T7 sequence (P32245 whole entry): as the sequence (P32245 whole entry) above
Put plainly: Ki determination by the method of Example 4, MC4-R. It is filed as cell-based. As to the method:
(§2) The Ki (nM) of certain compounds of the invention were determined. Functional evaluation of compounds at melanocortin receptors was performed by measuring the accumulation of intracellular cAMP in HEK-293 cells expressing MC3-R, MC4-R or MC5-R, and in B-16 mouse melanoma cells (containing MC1-R). Cells, suspended in Earle's Balanced Salt Solution containing 10 mM HEPES, pH 7.5, 5 mM MgCl2, 1 mM glutamine, 0.1% albumin and 0.6 mM 3-isobutyl-1-methyl-xanthine, a phosphodiesterase inhibitor, were plated in 96 well plates at a density of 0.5×10^5 cells per well. Cells were incubated with the test compounds in the presence or absence of α-MSH for 1 hour at 37° C. cAMP levels were measured by EIA (Amersham) in the cell lysates. Data analysis and EC50 values were determined using nonlinear regression analysis with Prism Graph-Pad software.

Experiment [9] deals with T8, MC5-R (HEK-293 cells expressing MC5-R) (Homo sapiens, UniProt P33032).
T8 construct: expressed in transfected cells; host or cells: HEK-293
T8 sequence (P33032 whole entry): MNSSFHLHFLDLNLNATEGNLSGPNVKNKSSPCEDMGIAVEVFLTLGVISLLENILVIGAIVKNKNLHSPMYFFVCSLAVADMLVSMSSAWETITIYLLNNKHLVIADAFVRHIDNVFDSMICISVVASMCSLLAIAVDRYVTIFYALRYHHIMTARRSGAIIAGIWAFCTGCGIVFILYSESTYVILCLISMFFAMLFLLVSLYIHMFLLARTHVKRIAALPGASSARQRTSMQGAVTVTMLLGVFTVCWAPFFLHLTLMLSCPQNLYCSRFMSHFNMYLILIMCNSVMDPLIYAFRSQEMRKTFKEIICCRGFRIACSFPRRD
The experiment in a line: Ki determination by the method of Example 4, MC5-R. The class given is cell-based.

Experiment [10] has as its target T6, MC1-R (B-16 mouse melanoma cells). Put plainly: cAMP assay for agonist/antagonist status, MC1-R. It is filed as cell-based. Particulars: cAMP assay as in Example 5. The protocol: as §2
(§3) The agonist/antagonist status with respect to MC1-R, MC4-R and MC5-R of certain compounds of the invention was determined. Antagonistic activity was determined by measuring the inhibition of α-MSH-induced cAMP levels following exposure to the compounds as in Example 4.

Experiment [11] deals with T7, MC4-R (HEK-293 cells expressing MC4-R). The experiment in a line: cAMP assay for agonist/antagonist status, MC4-R. Particulars: cAMP assay as in Example 5. The class given is cell-based. As to the method: as §2, §3
(Changes in cAMP serve as a functional read-out for many G protein-coupled receptors.)

The target in experiment [12] is T8, MC5-R (HEK-293 cells expressing MC5-R). Put plainly: cAMP assay for agonist/antagonist status, MC5-R. It is filed as cell-based. Particulars: cAMP assay as in Example 5. As to the method: as §2, §3

T1 sequence (P41968 whole entry): as the sequence (P41968 whole entry) above
T4 sequence (P33032 whole entry): as the sequence (P33032 whole entry) above

What is called Inhibition is the change of the read-out against control, counted positive when it falls. A high value points to strong suppression. As for `[2H]N[C@@H](Cc1cnc[nH]1)C(=O)N[C@@H](Cc1ccccc1)C(=O)N1C[C@H](OCc2ccccc2)C[C@H]1C(=O)NCCCCCCN` [Example 27], the “Inhibition at 1 μM MC3-R” value in experiment [1] amounted to 0%. Moreover, in experiment [2], the “Inhibition at 1 μM MC4-R” value is reported as 12%. The “Inhibition at 1 μM MC1-R” value in [3] turned out to be 39%. Also, the “Inhibition at 1 μM MC5-R” value in [4] is reported as 17%.
In general, Ki refers to a measure of affinity in units of concentration, obtained from inhibition or displacement. A high value points to lower affinity. Regarding `N=C(N)NCCCC1C(=O)N2C(COc3ccc4ccccc4c3)CCC2N1C(=O)C(Cc1ccc(Cl)cc1Cl)NC(=O)C1CCC(c2ccccc2)N1` (centres unmarked) [Example 46], the “24 hour change in food intake” value in experiment [5] is -9.52 g. Moreover, the change in weight in [5] (24 hour) is -10.64 g. Besides, the Ki came out at 312 nM in experiment [6] and 1040 nM in [7].
One may read the inhibition as the change of the read-out against control, counted positive when it falls. As to `N=C(N)NCCCC1C(=O)N2C(COc3ccc4ccccc4c3)CCC2N1C(=O)C(Cc1ccccc1Cl)NC(=O)C(N)COCc1ccccc1` (centres unmarked) [Example 30], the Ki in [8] is 41 nM; in experiment [6], 733 nM; in experiment [9], 151 nM; in experiment [7], 121 nM. In addition, the inhibition at 1 µM in experiment [1] was found to be 29%; in experiment [2], 94%; in experiment [3], 57%; in [4], 94%.
Take `N=C(N)NCCCC1C(=O)N2C(COc3ccc4ccccc4c3)CCC2N1C(=O)C(Cc1ccccc1Cl)NC(=O)C1CC(OCc2ccccc2)CN1` (centres unmarked) [Example 31]: the “agonist/antagonist status as to MC1-R” value in [10] is “agonist”. Further, the “agonist/antagonist status as to MC4-R” value in [11] is on record as “agonist”.
Regarding `[2H]N[C@@H](Cc1cnc[nH]1)C(=O)N[C@@H](Cc1ccccc1)C(=O)N1C[C@H](OCc2ccccc2)C[C@H]1C(=O)NCCCCCN` [Example 26], the “Inhibition at 1 μM MC3-R” value in experiment [1] is recorded as 0%. Moreover, the “Inhibition at 1 μM MC4-R” value in experiment [2] came out at 47%. Moreover, the “Inhibition at 1 μM MC1-R” value in experiment [3] came to 34%. Besides, the “Inhibition at 1 μM MC5-R” value in [4] is on record as 14%.
Regarding `[2H]N[C@@H](Cc1ccccc1)C(=O)N1C2CC[C@H](COc3ccccc3)N2C(=O)[C@@H]1CCCCN` (some centres unmarked) [Example 36], the inhibition at 1 µM in experiment [1] turned out to be 4%; in experiment [2], 0%; in experiment [3], 1%; in [4], 0%.
As for `[2H]N[C@@H](Cc1cnc[nH]1)C(=O)N[C@@H](Cc1ccccc1)C(=O)N1C2CC[C@H](COc3ccc4ccccc4c3)N2C(=O)[C@@H]1CCCCN` (some centres unmarked) [Example 42], the results for the inhibition at 1 µM in experiment [1], in [2] and in [4] were 0%, 36% and 0%, respectively.
For `N=C(N)NCCCC1C(=O)N2C(COc3ccc4ccccc4c3)CCC2N1C(=O)C(N)Cc1ccc(Cl)cc1Cl` (centres unmarked) [Compound B], the inhibition constant Ki amounted to 11 nM in experiment [8], 132 nM in [6], 499 nM in experiment [9] and 144 nM in [7]. Further, the “agonist/antagonist status as to MC5-R” value in experiment [12] was “agonist”. In addition, the “agonist/antagonist status as to MC1-R” value in experiment [10] is reported as “agonist”. Also, the inhibition at 1 µM was found to be 75% in [1], 98% in [2], 54% in [3] and 69% in experiment [4]. For the same compound, in [11], the “agonist/antagonist status as to MC4-R” value was “agonist”.
With `N=C(N)NCCCC1C(=O)N2C(COc3ccc4ccccc4c3)CCC2N1CC(N)Cc1ccc(Cl)cc1Cl` (centres unmarked) [Compound O], the Ki in experiment [8] was found to be 29 nM; in [6], 505 nM; in experiment [9], 689 nM; in [7], 848 nM. For the same compound, the inhibition at 1 µM in [1] was determined as 28%; in experiment [2], 91%; in experiment [3], 2%; in [4], 49%.
As for `N=C(N)NCCCC1C(=O)N2C(COc3ccc4ccccc4c3)CCC2N1C(=O)C(Cc1ccccc1Cl)NC(=O)C1Cc2ccccc2CN1` (centres unmarked) [Example 29], the inhibition constant (Ki) in experiment [8] was 9 nM; in experiment [6] it was 756 nM; in [9], 301 nM; in experiment [7], 81 nM. In addition, the inhibition at 1 µM in experiment [1] is 42%; in [2] it was 98%; in [3], 77%; in experiment [4] it was 87%.
In the case of `NCCCCC1C(=O)N2C(COc3ccc4ccccc4c3)CCC2N1C(=O)C(Cc1ccc(Cl)cc1)NC(=O)C1Cc2ccccc2CN1` (centres unmarked) [Example 11], the Ki was 24 nM in experiment [8], 787 nM in [6], 398 nM in experiment [9] and 10 nM in [7]. The inhibition at 1 µM in experiment [1] was found to be 24%; in [2], 94%; in [3] it was 95%; in [4], 73%.
Consider `[2H]N[C@@H](Cc1ccccc1)C(=O)N1C2CC[C@H](COc3ccc4ccccc4c3)N2C(=O)[C@@H]1CCCCN` (some centres unmarked) [Example 38], for which the inhibition at 1 µM came out at 13% in [1], 0% in experiment [2], 46% in experiment [3] and 1% in experiment [4].
Consider `N=C(N)NCCCC1C(=O)N2C(Cc3ccc4ccccc4c3)CCC2N1C(=O)C(N)Cc1ccc(Cl)cc1Cl` (centres unmarked) [Compound G], for which the inhibitory constant (Ki) in experiment [8] was found to be 19 nM; in experiment [6], 121 nM; in [9], 1050 nM; in [7], 63 nM. Besides, in [12], the “agonist/antagonist status as to MC5-R” value is “agonist”. The inhibition at 1 µM in [1] stood at 63%; in [2], 93%; in experiment [3], 76%; in experiment [4], 46%. Further, the “agonist/antagonist status as to MC4-R” value in experiment [11] was “agonist”.
As to `CCCCCCC(=O)NC(COCc1ccccc1)C(=O)NC(Cc1ccc(Cl)cc1)C(=O)N1C(CCCCN)C(=O)N2C(COc3ccc4ccccc4c3)CCC21` (centres unmarked) [Example 12], the Ki in experiment [8] was found to be 22 nM; in [6] it was 181 nM; in experiment [9], 116 nM; in [7], 13 nM. In addition, the inhibition at 1 µM came out at 75% in [1], 98% in experiment [2], 98% in [3] and 95% in experiment [4].
